# Results as given in US20240115221A1, “POSITRON IMAGING TOMOGRAPHY IMAGING AGENT C[…] METHOD FOR BACTERIAL INFECTION” (The Research Foundation for the State University of New York, priority 2016, published 2024).
# Experiments:
# Vero cells = assay: Cytotoxicity for Vero cells; type: cell-based
# Experimental: (§1) Expressed and purified dihydropteroate synthase (DHPS) from S. aureus (saDHPS) was cloned. DHPS is the enzyme that installs PABA (p-aminobenzoic acid) in the folate biosynthesis pathway (Scheme 2). […] Using a coupled assay, it was determined that the kinetic parameters for saDHPS with PABA, PAS and F-PABA. […] Since PAS is an antibacterial compound whose mechanism of action may be related for the ability of this compound to compete with PABA for DHPS, we determined the antibacterial activity and cytotoxicity of F-PABA for several bacterial species as well as Vero cells. In each case no growth inhibition was observed up to 200 μg/ml.
# [1] = system: several bacterial species; assay: Antibacterial activity for several bacterial species; type: cell-based
# [2] = target: T1, dihydropteroate synthase (DHPS) from S. aureus (saDHPS) (Staphylococcus aureus, UniProt O05701); assay: Coupled assay, kinetic parameters for saDHPS; type: biochemical
# T1 construct: made in house
# T1 sequence (O05701 whole entry): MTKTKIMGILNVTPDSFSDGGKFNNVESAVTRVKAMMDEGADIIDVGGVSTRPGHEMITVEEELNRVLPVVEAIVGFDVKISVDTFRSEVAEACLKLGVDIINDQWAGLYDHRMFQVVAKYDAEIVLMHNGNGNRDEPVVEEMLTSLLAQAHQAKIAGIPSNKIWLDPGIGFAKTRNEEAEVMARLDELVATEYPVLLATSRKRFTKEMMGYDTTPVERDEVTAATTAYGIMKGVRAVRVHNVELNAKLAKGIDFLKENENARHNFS
# Experimental: as §1
# S. aureus [3] = assay: MIC determination (antibacterial activity); type: cell-based; conditions: Staphylococcus aureus
# Experimental: as §1
# E. coli [4] = assay: MIC determination (antibacterial activity); type: cell-based; conditions: Escherichia coli
# Experimental: as §1
# M. tuberculosis = assay: MIC determination (antibacterial activity); type: cell-based; conditions: Mycobacterium tuberculosis
# Experimental: as §1
# Klebsiela pneumoniae = assay: Uptake of [18F]F-PABA by bacteria; type: cell-based
# From the text: (§2) The ability of different bacterial species to take up [^18F] F-PABA was studied. The radiotracer accumulated in both methicillin sensitive S. aureus (MSSA, Newman) and methicillin-resistant S. aureus (MRSA), as well as the Gram negative bacteria E. coli and Klebsiela pneumoniae.
# E. coli [5] = assay: Uptake of [18F]F-PABA by bacteria; type: cell-based
# From the text: as §2
# [6] = system: methicillin-resistant S. aureus (MRSA); assay: Uptake of [18F]F-PABA by bacteria; type: cell-based
# From the text: as §2
# Newman S. aureus [7] = assay: Rat triceps infection versus sterile inflammation (heat-killed S. aureus); type: in vivo; conditions: right triceps infected, left triceps heat-killed S. aureus
# Experimental: One of the main limitations of using FDG to image infection is that FDG accumulates in the mammalian cells involved in the inflammatory response to infection. It was analyzed how inflammation affected the biodistribution of [^18F]F-PABA by generating an inflammatory response using 50 μL of […] of Newman S. aureus heat-killed bacteria.
# accumulation of [^18F]F-PABA at the site of infection is likely not due to uptake by cells involved in the inflammatory response.
# [8] = system: methicillin sensitive S. aureus (MSSA, Newman); assay: Uptake of [18F]F-PABA by bacteria; type: cell-based
# From the text: as §2
# (§3) In contrast, [^18F]F-PABA was not taken up by Enterococcus faecalis. E. faecalis has a folate salvage pathway and can take up folate from the environment. Thus, folic acid biosynthesis is dispensable in this organism, which also explains why sulfonamides are not used to treat infection by E. faecalis.
# Enterococcus faecalis = assay: Uptake of [18F]F-PABA by bacteria; type: cell-based
# From the text: as §3
# Newman S. aureus [9] = assay: Rat triceps S. aureus infection model, PET imaging and ex vivo counting; type: in vivo
# Experimental: Initial in vivo studies focused on soft tissue models of MSSA infection. This included a mouse thigh infection model and rat triceps model. […] Fifty μL of 10^9 CFU of Newman S. aureus BHI culture was injected into the right triceps of a rat. After 10-15 hr the rats were imaged following iv administration of 0.8-1.2 mCi of [^18F]F-PABA. The images clearly show the accumulation of radioactivity in the right but not the left triceps. In addition to monitoring the time course of [^18F]F-PABA biodistribution, we also quantified tracer levels by postmortem ex vivo counting. […] At 60 min tracer levels were 5.4× higher in the infected right triceps compared to the uninfected left triceps. This compares favorably with other tracers.
# S. aureus [10] = assay: Rat triceps infection, tracer accumulation and bacterial load under vancomycin treatment
# From the text: A key goal is to identify a tracer that can be used to quantify bacterial load and monitor the change in bacterial load during and following antibiotic treatment.
# [11] = after a further 3 doses of vancomycin
smiles,measurement,setting,value
"Nc1ccc(C(=O)O)c(F)c1 [2-F-PABA, 2-fluoro-4-aminobenzoic acid]",concentration up to which no growth inhibition was observed (cytotoxicity),Vero cells,> 200 µg/mL
same,MIC,"[1]; discussion, species not named",> 100 µg/mL
same,concentration up to which no growth inhibition was observed,[1]; several bacterial species,> 200 µg/mL
same,antibacterial activity,[1]; summary of Table 1,no antibacterial activity
same,substrate for saDHPS,[2],alternative substrate for saDHPS
same,MIC,S. aureus [3],> 200 µg/mL
same,MIC,E. coli [4],> 200 µg/mL
same,MIC,M. tuberculosis,> 100 µg/mL
"Nc1ccc(C(=O)O)c([18F])c1 [[^18F]F-PABA, 4-Amino-2-[^18f]-fluorobenzoic acid]",uptake of radiotracer,Klebsiela pneumoniae,accumulated
same,uptake of radiotracer,E. coli [5],accumulated
same,uptake of radiotracer,[6],accumulated
same,radiotracer levels at site of infection compared to site of sterile inflammation,Newman S. aureus [7],10 fold
same,uptake of radiotracer,[8]; heat-killed MSSA cells,unable to take up
same,uptake of radiotracer,[8]; viable MSSA (Newman),accumulated
same,uptake of radiotracer,Enterococcus faecalis,not taken up
same,tracer levels in infected right triceps compared to uninfected left triceps,"Newman S. aureus [9]; iv 0.8-1.2 mCi, at 60 min",5.4 ×
same,biodistribution of tracer,"Newman S. aureus [9]; iv, postmortem ex vivo counting",distributed to all tissues and organs with the exception of the brain
same,tracer accumulation in infected triceps,S. aureus [10]; after 3 doses of vancomycin,0.015±0.005 %1D/cc
same,decrease in tracer levels,S. aureus [10]; after 3 doses of vancomycin versus before treatment,~3 fold
same,tracer accumulation in infected triceps,S. aureus [10]; [11],0.013±0.002 % 10/cc
same,tracer accumulation in infected triceps,S. aureus [10]; before treatment,0.051±0.008 %1D/cc
same,tracer levels in the uninfected triceps,S. aureus [10]; uninfected triceps,0.007±0.001 %1D/cc
"CN[C@H](CC(C)C)C(=O)N[C@H]1C(=O)N[C@@H](CC(N)=O)C(=O)N[C@H]2C(=O)N[C@H]3C(=O)N[C@H](C(=O)N[C@H](C(=O)O)c4cc(O)cc(O)c4-c4cc3ccc4O)[C@H](O)c3ccc(c(Cl)c3)Oc3cc2cc(c3O[C@@H]2O[C@H](CO)[C@@H](O)[C@H](O)[C@H]2O[C@H]2C[C@](C)(N)[C@H](O)[C@H](C)O2)Oc2ccc(cc2Cl)[C@H]1O [vancomycin, reference compound]",bacterial burden of infected triceps,S. aureus [10]; after 3 doses of vancomycin,8.1±0.3 Log10 CFU
same,decrease in bacterial burden,S. aureus [10]; after 3 doses of vancomycin,~3 logs
same,bacterial burden of infected triceps,S. aureus [10]; [11],7.0±0.9 Log10 CFU
same,additional decrease in bacterial burden,S. aureus [10]; further 3 doses of vancomycin,1 log
